Consider four compounds from patent US20020114804A1, “A METHOD OF TREATING INFECTION OF SUTURES AND PROSTHETIC DEVICES” (priority 1996, published 2002).

Type in all cases: cell-based, human
The subject of test [1] is PMNs. The experiment in a line: Exclusion of rhodamine-labeled polyethylene glycol (Rh-PEG) from zones of adhesion of PMNs. The settings on record: fMLP in combination with IL-8 or LTB4, fibrin. As to the method: Rh-PEG binds avidly to protein-coated surfaces, and can be detected easily by its fluorescence. Individual wells on glass microslides (Carlson Scientific, Peotone, Ill.) were coated with either fibrin, Matrigel or collagen IV in a manner similar to that for coating cell culture inserts except that 20 μl of the various solutions were used per well. 20 μl of PMNs (10^6 cells/ml in PBSG-HSA) were added to each well and PMNs were allowed to adhere for 15 mins at 37°. The cells were washed in PBS, fixed with 3.7% paraformaldehyde in PBS for 10 min, washed again with PBS, and further incubated with 10 kDa Rh-PEG at room temperature for 60 min. The preparation then was washed with PBS and immediately observed by phase and fluorescent microscopy at 400× magnification. Average values from three different experiments are reported as the percentage of PMNs that excluded Rh-PEG from zones of adherence between the cells and the underlying matrix.

Test [2] concerns PMNs. The experiment in a line: PMN migration through filters coated with fibrinogen or fibronectin. How it is done: (§1) Becton-Dickinson cell culture inserts (pore sizes 3 or 8 μm: Franklin Lakes, N.J.) were overlaid with the following proteins:
Fibrinogen or fibronectin: 0.1 ml of PBS containing 100 μg/ml fibrinogen or fibronectin (New York Blood Center, New York, N.Y.), was placed into each insert (pore size 3 μm). Inserts were incubated at 37° C. for 60 min and washed with 250 μl of PBS. Filters coated with fibrinogen or fibronectin were diffusely fluorescent as visualized by epifluorescent microscopy when incubated with the corresponding antibody [fluorescein-labeled anti-fibrinogen, or anti-fibronectin monoclonal antibodies (Cappel, Malvern, Pa.)], while uncoated filters, or filters incubated with fluorescein-labeled antibody of the opposite specificity, were not.
PMNs were prepared from fresh heparinized blood from healthy adult volunteers by sedimentation on Ficoll-Hypaque gradients. Contaminating red blood cells were removed by hypotonic lysis, as described (7). The purity of PMN isolated by this method is >95% as determined by Wright-Giemsa staining (7). […] The medium in each lower compartment was collected and its content of PMNs was determined using either a Coulter Counter or a hemocytometer. […] Counts are expressed as the average number of PMNs that migrated into the lower compartment. […]

Test [3] concerns monocytes. The experiment in a line: Monocyte migration through Matrigel or Matrigel/tenascin coated filters. Conditions: for Inhibition of chemoattractant-stimulated monocyte migration: Matrigel-coated filters, depending on chemoattractant, human tenascin 5 μg. An excerpt:
Mononuclear cells were isolated by centrifugation of heparinized human blood on Ficoll-Hypaque gradients as described (65, 66). The mononuclear cell fraction was resuspended in RMPI 1640 medium supplemented with 10% pooled human serum or autologous serum and used immediately for monocyte migration studies. For some experiments, monocytes were obtained by centrifugation of whole blood or of white blood cells concentrated from a unit of blood (leukopak), on Nycodenz gradients as described (39). More than 90% of the nucleated cells obtained by this Nycodenz method were monocytes, as assessed by their ability to phagocytose IgG-coated red blood cells.
(§2) Cultured monocytes were prepared by allowing 10^7 total mononuclear cells, suspended in 10 ml of RMPI 1640 medium supplemented with 10% pooled human serum (1640+HS), or 10% autologous serum (1640+AS), to adhere to Falcon T-150 tissue culture Petri dishes for 2 h at 37° C. Non-adherent cells were removed by washing, leaving an adherent cell population consisting of greater than 98% monocytes as measured by their capacity to phagocytose IgG coated sheep red blood cells. For migration studies, monocytes were maintained in culture for 24 h in RPMI 1640+HS or AS, and detached from the dishes by gentle pipetting of 10 ml of ice cold phosphate buffered saline (without Ca^2+ or Mg^2+) containing 1.0 mM EDTA. The cells recovered were resuspended in RPMI-1640+HS as described (65).
(§3) Cell culture inserts containing polyethylene terephthalate filters, 8-μm pore size (Becton-Dickinson), were overlaid with 0.1 ml of Matrigel (20-25 μg protein/filter) (Collaborative Research, Bedford, Mass.), and incubated at room temperature until they dried. These Matrigel-coated filters were washed with phosphate buffered saline containing 1.0 mM Mg^2+ and 1.0 mM Ca^2+ (PBS). 0.1 ml of a PBS solution (pH 7.2) containing the indicated amount of purified chick brain tenascin was added to some of the inserts. The filters were incubated at room temperature until they dried. These protein-coated filters were washed again with PBS and used within 12 h for cell migration studies. To prepare collagen I-coated inserts, filters were coated with rat tail collagen I (ICN Biochemicals, Costa, Mesa, Calif.) (400 μg/ml in PBS), by adding 0.1 ml of this solution to an insert and incubating the inserts at room temperature for 24 h. Some of these collagen I-coated filters were then incubated with tenascin as described above.
Monocytes: Cell culture inserts were placed in 16 mm wells containing 0.5 mls of RPMI-1640+HS or AS in the presence or absence of a chemoattractant. 0.5 ml of RPMI-1640+HS or AS serum containing between 2-10×10^5 mononuclear phagocytes was added to the upper chamber of the inserts and the inserts were placed in a humidified CO2 incubator at 37° C. After 24 h the medium in the lower chamber was recovered and its cell content assayed using either a Coulter counter or a hemocytometer. […] Cell counts reported are the average number of cells recovered from the medium in the lower compartment of chemotaxis chambers. Over 90% of the cells in the lower chamber were identified as monocytes based on their morphology, their capacity to phagocytose IgG coated sheep red cells, and their staining with fluorescein-conjugated anti α,β monoclonal antibody (Oncogene Sciences, Uniondale, N.Y.). Unless otherwise indicated, all values are the average of duplicate samples run in parallel in a representative experiment. Each experiment was repeated at least three times with similar results.

The subject of test [4] is PMNs. The experiment in a line: PMN migration through Matrigel or Matrigel/tenascin coated filters. Conditions: for Inhibition of chemoattractant-stimulated PMN migration: Matrigel-coated filters, depending on chemoattractant, human tenascin 5 μg. As to the method:
Polymorphonuclear leukocytes (PMN), were prepared as described (7) from heparinized human blood by sedimentation on Ficoll-Hypaque gradients. Contaminating red blood cells were removed by hypotonic lysis. The purity of PMN isolated by this method was >95% as determined by Wright-Giemsa staining.
as §3
PMN: 250 μl of PBS [supplemented with 5.5 mM glucose and 0.1% human serum albumin (HSA) (PBSG-HSA)] containing 1×10^6 PMNs was placed in the upper compartment of each insert. 250 μl of PBSG-HSA with or without chemoattractant, as indicated, was added to the bottom compartment. The inserts were incubated for about 4 h at 37° C. in a humidified atmosphere containing 95% air/5% CO2. […] The medium in the lower compartment was collected and its content of PMN determined using a Coulter Counter, as described in Example 1.

The subject of test [5] is PMNs. The experiment in a line: PMN migration through fibrin gels in Boyden-type chemotaxis chambers. How it is done:
as §1
Fibrin gels: 1 Unit of thrombin (a gift from Dr. John Fenton, Albany Medical College, Albany, N.Y.), in 5 μl of PBS was added first to each insert. 0.1 ml phosphate buffered saline supplemented with Ca^2+ and Mg^2+ (PBS) containing 100 μg commercial grade fibrinogen (Calbiochem. Inc., San Diego, Calif.) or purified fibrinogen [a gift from Dr. Jeffery Weitz, (MacMaster University, Hamilton, On.)] was then placed into each 8.2 mm diameter insert on top of the thrombin. The mixture was incubated at 37° C. for 5 min to allow fibrin gel formation (determined by visual inspection). 1 Unit PPACK (Calbiochem Inc., San Diego, Calif.; 10^−5 M final concentration), in 100 μl medium was added to each insert to inhibit thrombin, and gels were washed with 250 μl PBS to remove inactivated thrombin. The fibrin gels formed were about 1 mm thick as measured under a dissecting microscope.
(§4) PMNs were prepared from fresh heparinized blood from healthy adult volunteers by sedimentation on Ficoll-Hypaque gradients. Contaminating red blood cells were removed by hypotonic lysis, as described (7). The purity of PMN isolated by this method is >95% as determined by Wright-Giemsa staining (7). 10^6 PMNs in 250 μl of PBS supplemented with 5.5 mM glucose and 0.1% human serum albumin (PBSG-HSA), were placed in the upper compartment of each insert and incubated for 0-6 hrs at 37° C. in a humidified atmosphere containing 95% air/5% CO2. At the times and concentrations specified, chemoattractants/cytokines were added to the top or bottom compartment in 250 μl of PBSG-HSA. At the end of the incubation, the chambers were shaken to dislodge PMNs from the lower surface of the inserts. The medium in each lower compartment was collected and its content of PMNs was determined using either a Coulter Counter or a hemocytometer. Both methods gave similar results. Counts are expressed as the average number of PMNs that migrated into the lower compartment. Unless otherwise indicated, all values reported are the average of six data points from at least 3 independent experiments.

Test [6] concerns PMNs. In words: PMN migration through gels of Matrigel or collagen IV. Conditions: added to the bottom chamber. As to the method: as §1
Collagen type IV and Matrigel matrices: 0.1 ml PBS containing 100 μg human placental collagen IV (Fluka Chemical Corp., Ronkonkoma, N.Y.), or 80 μg of reconstituted basement membrane proteins (Matrigel, Collaborative Research, Bedford, Mass.), was placed into each insert and allowed to gel at room temperature for 24 hrs.
as §4, with “At the end of the incubation, the chambers were shaken to dislodge PMNs from the lower surface of the inserts.” left out, “Both methods gave similar results.” left out, “Unless otherwise indicated, all values reported are the average of six data points from at least 3 independent experiments.” left out

In test [7] the test system is PMNs. In words: PMN migration through fibrin gels with anti-integrin antibodies or synthetic peptides. Conditions: PMNs incubated with antibody (2 μg/ml) or peptide (1 mg/ml); fMLP 10^−7M, 6 hrs. As to the method:
Fibrin gels were formed on filters of cell culture inserts as described in Experimental Peocedures and fMLP (10^−7M) or LTB4 (10^−7M) was added to the medium in the lower chamber. FIG. 10A—10^6 PMNs were pre-incubated in medium containing antibodies against rat or human β1 integrins, or antibodies against the α5 subunit of human α5β1 integrin, or against the human β2 integrin complement receptor 3 (CR3), or against the human β2 integrin p150/95, or against human β3 integrins for 15 min at 4° C. PMNs were placed in the upper chamber of cell culture inserts in the same medium and the inserts were incubated for 6 hrs at 37° C., at which time the number of cells in the lower chamber was determined using a Coulter Counter. […] The mixture was added to the upper chamber of cell culture inserts and the inserts were incubated for 6 hrs at 37° C., at which time the number of cells in the lower chamber was counted as in FIG. 10A.
Fibrin gels: 1 Unit of thrombin (a gift from Dr. John Fenton, Albany Medical College, Albany, N.Y.), in 5 μl of PBS was added first to each insert. […] The mixture was incubated at 37° C. for 5 min to allow fibrin gel formation (determined by visual inspection). […] The fibrin gels formed were about 1 mm thick as measured under a dissecting microscope. […]

In another test the test system is PMN or monocytes. The experiment in a line: Adhesion of PMN or monocytes to tenascin-impregnated Matrigel.
The subject of test [8] is monocytes. The experiment in a line: Monocyte migration through collagen I coated inserts. Conditions: tenascin added to collagen I. As to the method: as §2
Cell culture inserts containing polyethylene terephthalate filters, 8-μm pore size (Becton-Dickinson), were overlaid with 0.1 ml of Matrigel (20-25 μg protein/filter) (Collaborative Research, Bedford, Mass.), and incubated at room temperature until they dried. These Matrigel-coated filters were washed with phosphate buffered saline containing 1.0 mM Mg^2+ and 1.0 mM Ca^2+ (PBS). 0.1 ml of a PBS solution (pH 7.2) containing the indicated amount of purified chick brain tenascin was added to some of the inserts. The filters were incubated at room temperature until they dried. […]

Where [9] appears, read: added in combination in bottom compartment, 6 hr.

`CSCC[C@H](NC=O)C(=O)N[C@@H](CC(C)C)C(=O)N[C@@H](Cc1ccccc1)C(=O)O` [fMLP, formyl-methionyl-leucyl-phenylalanine]: the “PMNs forming zones of adhesion that excluded 10 kDa Rh-PEG” value in the test with PMNs [1] is “about 50%”. In addition, the “PMN migration through filters with adsorbed fibrinogen or fibronectin” value in the test on PMNs [2] is “promoted PMN migration”. In addition, in the test on monocytes [3] (Matrigel alone), the “Cultured monocytes that migrated through Matrigel-coated inserts” value is ~15% and the “Freshly isolated human monocytes that migrated through Matrigel-coated inserts” value is recorded as “About 20%”. For the same compound, the “PMNs that migrated through Matrigel-coated inserts” value in the test on PMNs [4] (Matrigel alone) is listed as ~10%. Also, the “Effect of serum on PMN migration through fibrin gels in response to the chemoattractant” value with PMNs [5] (20% human serum in upper and lower compartments) is on record as “nor did the presence of serum promote”. In the test with PMNs [5] (setting [9]), the “Effect on PMN migration through fibrin gels in response to IL-8” value was “reduced” and the “Effect on PMN migration through fibrin gels in response to LTB4” value is “reduced”. The “PMN migration through fibrin gels (in words)” value with PMNs [5] (chemoattractant in lower compartment, zymosan-activated human plasma 2-10%) is listed as “not”. In addition, the “PMN migration through gels of Matrigel or collagen IV” value in the test on PMNs [6] is reported as “stimulated PMN migration”.

Regarding GRGDSP, the “PMN migration through fibrin gels in response to fMLP” value with PMNs [7] was “migrated through fibrin gels”.

With “chick brain tenascin: tenascin purified from 14-day embryonic chick brains”, the “Number of chemoattractant-stimulated PMN or monocytes adhered to tenascin-impregnated Matrigel over Matrigel alone” value in the test on PMN or monocytes is on record as “no increase”. For the same compound, the “Reduction of TNF- or LTB4-stimulated monocyte migration through collagen I coated inserts” value in the test with monocytes [8] is recorded as “at least 60%”. The “Inhibition of chemoattractant-stimulated monocyte migration” value with monocytes [3] is 65-80%. For the same compound, in the test with monocytes [3] (amount added to Matrigel-coated insert, cultured monocytes, 24 h), the “Amount causing half maximal inhibition of TNF-stimulated monocyte migration” value is given as “about 0.75 μg”. Besides, in the test on monocytes [3] (tenascin added to Matrigel), the “Effect on monocyte migration through Matrigel in response to TNF, fMLP or LTB4” value is reported as “significantly reduced” and the “Effect on monocytes that migrated in the absence of chemoattractant” value is on record as “no significant effect”. In the test on PMNs [4], the “Inhibition of chemoattractant-stimulated PMN migration” value is reported as 65-80%. In addition, in the test on PMNs [4] (tenascin added to Matrigel), the “Effect on PMN migration through Matrigel in response to TNF, fMLP or LTB4” value is “significantly reduced” and the “Effect on PMN that migrated across Matrigel in the absence of chemoattractant” value is “further reduced”.

In the case of “human tenascin: tenascin obtained from cultured human glioma cells, from GIBCO-BRL”, in the test with monocytes [3], the “Inhibition of chemoattractant-stimulated monocyte migration” value was “at least 50%”. For the same compound, the “Inhibition of chemoattractant-stimulated PMN migration” value in the test on PMNs [4] is reported as “at least 50%”.
